≈ marks a conversion by molar mass, not a printed value. Read-outs that look alike come from different tables or passages of the source.
What was measured:
Assay type in all cases: physicochemical
[1] = Kinetic solubility in pH 2, 5 and 7 buffers at RT; details: for solubility at 1 h / solubility at 2 h / solubility at 4 h / solubility at 24 h: 19 °C, aqueous buffer, thermodynamic from solid, read-out: S: solubility; for solubility at 1 h / solubility at 2 h / solubility at 4 h / solubility at 24 h / FC: solid form change / pH: final pH of supernatant / S: solubility: RT
Method: Kinetic solubility of two salt leads was measured in pH 2, 5, and 7 buffers to evaluate their solubility and disproportionation risk, using freebase Form A (812608-05-A) as control. […] After centrifugation, supernatants were collected for HPLC and pH tests, and wet cakes were collected for XRPD characterization. If clear solutions were obtained, accurate concentration was measured for the solutions.
Agilent 1100/1260 HPLC was utilized and detailed chromatographic conditions for purity and solubility measurement are listed in Table 39.

[2] = Solid-state stability under 40° C./75% RH for one week; details: for Solid-state Stability: 40° C./75% RH for at least one week; for FC: form change based on XRPD results / Purity vs. Initial (%): 40° C./75% RH; for FC: form change based on XRPD results / Purity vs. Initial (%) / Purity (area %): one week; for Purity (area %): after 40° C./75% RH, HPLC
Method: Solid-state stability of freebase Form A, HCl salt Form A and fumarate Form A was evaluated under 40° C./75% RH for one week. Stability samples were characterized by XRPD to check any solid form change and by HPLC to check purity change.

[3] = Hygroscopicity by DVS at 25° C.; details: for Hygroscopicity (%), water uptake: 25° C./80% RH
Method: A DVS isotherm plot was collected at 25° C. to investigate the solid form stability as a function of humidity. All the anhydrous samples were pre-equilibrated at 0% RH to remove the unbounded solvent or water before getting started. As evidenced by the water uptake of […] up to 80% RH, freebase Form A and both two salt forms were slightly hygroscopic, and no solid form change was observed after DVS evaluation (FIGS. 20A, 20B, 20C, 20D, 20E, and 20F).
Dynamic Vapor Sorption (DVS) was measured via a SMS (Surface Measurement Systems) DVS Intrinsic. The relative humidity at 25° C. were calibrated against deliquescence point of LiCl, Mg(NO3)2 and KCl.

[4] = Estimated pKa values; details: method not stated
[5] = Approximate solubility of freebase in 12 solvents at RT; details: thermodynamic from solid
Method: Approximate solubility of freebase Form A (812608-05-A) was measured in 12 solvents at RT. For each experiment, approximately 2 mg of sample was added into a 3 mL glass vial. Solvents in Table 35 were then added step wise (50, 50, 200, 200, 500 μL) into the vials until the solids were dissolved visually or a total volume of 1 mL was reached. Solubility results summarized in Table 35 were used to guide the solvent selection in salt screening design.

SMILES: COc1cc(Nc2nccc(Nc3cccnc3-c3ccccn3)n2)ccc1N1CCN(C)CC1 [Freebase Form A, N^4-(2,2′-bipyridin-3-yl)-N^2-(3-methoxy-4-(4-methylpiperazin-1-yl)phenyl)pyrimidine-2,4-diamine]
- solubility at 1 h ([1]; pH 2 buffer, 1 hr): 4300 µg/mL (≈ 9.18 mM)
- solubility at 2 h ([1]; pH 2 buffer, 2 hrs): 4100 µg/mL (≈ 8.75 mM)
- solubility at 4 h ([1]; pH 2 buffer, 4 hrs): 4100 µg/mL (≈ 8.75 mM)
- solubility at 24 h ([1]; pH 2 buffer, 24 hrs): 3200 µg/mL (≈ 6.83 mM)
- solubility at 1 h ([1]; pH 5 buffer, 1 hr): 7400 µg/mL (≈ 15.8 mM)
- solubility at 2 h ([1]; pH 5 buffer, 2 hrs): 7200 µg/mL (≈ 15.4 mM)
- solubility at 4 h ([1]; pH 5 buffer, 4 hrs): 6300 µg/mL (≈ 13.4 mM)
- solubility at 24 h ([1]; pH 5 buffer, 24 hrs): 6600 µg/mL (≈ 14.1 mM)
- solubility at 1 h ([1]; pH 7 buffer, 1 hr): 0.4 µg/mL (≈ 0.000854 mM)
- solubility at 2 h ([1]; pH 7 buffer, 2 hrs): 1 µg/mL (≈ 0.00213 mM)
- solubility at 4 h ([1]; pH 7 buffer, 4 hrs): 0.4 µg/mL (≈ 0.000854 mM)
- solubility at 24 h ([1]; pH 7 buffer, 24 hrs): 8.9 µg/mL (≈ 0.019 mM)
- FC: solid form change ([1]; pH 2 buffer, 1 hr): No
- pH: final pH of supernatant ([1]; pH 2 buffer, 1 hr): 6.2
- FC: solid form change ([1]; pH 2 buffer, 2 hrs): No
- pH: final pH of supernatant ([1]; pH 2 buffer, 2 hrs): 6.2
- FC: solid form change ([1]; pH 2 buffer, 4 hrs): No
- pH: final pH of supernatant ([1]; pH 2 buffer, 4 hrs): 6.2
- FC: solid form change ([1]; pH 2 buffer, 24 hrs): No
- pH: final pH of supernatant ([1]; pH 2 buffer, 24 hrs): 6.1
- FC: solid form change ([1]; pH 5 buffer, 1 hr): No*
- pH: final pH of supernatant ([1]; pH 5 buffer, 1 hr): 6.2
- FC: solid form change ([1]; pH 5 buffer, 2 hrs): No*
- pH: final pH of supernatant ([1]; pH 5 buffer, 2 hrs): 6.3
- FC: solid form change ([1]; pH 5 buffer, 4 hrs): No
- pH: final pH of supernatant ([1]; pH 5 buffer, 4 hrs): 6.4
- FC: solid form change ([1]; pH 5 buffer, 24 hrs): No
- pH: final pH of supernatant ([1]; pH 5 buffer, 24 hrs): 6.4
- FC: solid form change ([1]; pH 7 buffer, 1 hr): No
- pH: final pH of supernatant ([1]; pH 7 buffer, 1 hr): 7.0
- FC: solid form change ([1]; pH 7 buffer, 2 hrs): No
- pH: final pH of supernatant ([1]; pH 7 buffer, 2 hrs): 6.9
- FC: solid form change ([1]; pH 7 buffer, 4 hrs): No
- pH: final pH of supernatant ([1]; pH 7 buffer, 4 hrs): 7.0
- FC: solid form change ([1]; pH 7 buffer, 24 hrs): No
- pH: final pH of supernatant ([1]; pH 7 buffer, 24 hrs): 7.0
- Solid-state Stability [2]: Good physicochemical properties under 40° C./75%
- FC: form change based on XRPD results [2]: No
- Purity vs. Initial (%) [2]: 100.0%
- Purity (area %) [2]: 99.18 area %
- Hygroscopicity (%), water uptake [3]: (0.60) %
- pKa [4]: 7.5
- solubility ([5]; organic solvent or mixture, ACN): < 2000 µg/mL
- solubility ([5]; organic solvent or mixture, Acetone): < 2400 µg/mL
- solubility ([5]; organic solvent or mixture, EtOAc): < 2500 µg/mL
- solubility ([5]; organic solvent or mixture, EtOH): 2100 to 4200 µg/mL (≈ 4.48 to 8.96 mM)
- solubility ([5]; organic solvent or mixture, IPA): < 2400 µg/mL
- solubility ([5]; organic solvent or mixture, IPAc): < 2400 µg/mL
- solubility ([5]; organic solvent or mixture, MIBK): 1900 to 3800 µg/mL (≈ 4.05 to 8.11 mM)
- solubility ([5]; organic solvent or mixture, MeOH): 2400 to 4800 µg/mL (≈ 5.12 to 10.2 mM)
- solubility ([5]; organic solvent or mixture, THF): 3600 to 6000 µg/mL (≈ 7.68 to 12.8 mM)
- solubility ([5]; organic solvent or mixture, Toluene): 2000 to 4000 µg/mL (≈ 4.27 to 8.54 mM)
- solubility ([5]; organic solvent or mixture, n-Heptane): < 2100 µg/mL
- solubility ([5]; water, H2O): < 1900 µg/mL

SMILES: COc1cc(Nc2nccc(Nc3cccnc3-c3ccccn3)n2)ccc1N1CCN(C)CC1.Cl [HCl Salt Form A, N^4-(2,2′-bipyridin-3-yl)-N^2-(3-methoxy-4-(4-methylpiperazin-1-yl)phenyl)pyrimidine-2,4-diamine anhydrous hydrochloric acid salt]
- Kinetic Solubility compared with freebase Form A ([1]; pH 2, 5 and 7 buffers): showed increased solubility in pH 2, 5 and 7 buffers;
- S: solubility ([1]; pH 2 buffer, 1 hr): 13400 µg/mL
- pH: final pH of supernatant ([1]; pH 2 buffer, 1 hr): 5.5
- S: solubility ([1]; pH 2 buffer, 2 hrs): 13300 µg/mL
- pH: final pH of supernatant ([1]; pH 2 buffer, 2 hrs): 5.6
- S: solubility ([1]; pH 2 buffer, 4 hrs): 13200 µg/mL
- pH: final pH of supernatant ([1]; pH 2 buffer, 4 hrs): 5.6
- S: solubility ([1]; pH 2 buffer, 24 hrs): 11800 µg/mL
- pH: final pH of supernatant ([1]; pH 2 buffer, 24 hrs): 5.6
- S: solubility ([1]; pH 5 buffer, 1 hr): 13200 µg/mL
- pH: final pH of supernatant ([1]; pH 5 buffer, 1 hr): 5.7
- S: solubility ([1]; pH 5 buffer, 2 hrs): 13000 µg/mL
- pH: final pH of supernatant ([1]; pH 5 buffer, 2 hrs): 5.7
- S: solubility ([1]; pH 5 buffer, 4 hrs): 13000 µg/mL
- pH: final pH of supernatant ([1]; pH 5 buffer, 4 hrs): 5.7
- S: solubility ([1]; pH 5 buffer, 24 hrs): 11600 µg/mL
- pH: final pH of supernatant ([1]; pH 5 buffer, 24 hrs): 5.7
- FC: solid form change ([1]; pH 7 buffer, 1 hr): Yes
- S: solubility ([1]; pH 7 buffer, 1 hr): 13500 µg/mL
- pH: final pH of supernatant ([1]; pH 7 buffer, 1 hr): 7.0
- FC: solid form change ([1]; pH 7 buffer, 2 hrs): Yes
- S: solubility ([1]; pH 7 buffer, 2 hrs): 9600 µg/mL
- pH: final pH of supernatant ([1]; pH 7 buffer, 2 hrs): 6.9
- FC: solid form change ([1]; pH 7 buffer, 4 hrs): Yes
- S: solubility ([1]; pH 7 buffer, 4 hrs): 9400 µg/mL
- pH: final pH of supernatant ([1]; pH 7 buffer, 4 hrs): 6.9
- FC: solid form change ([1]; pH 7 buffer, 24 hrs): Yes
- S: solubility ([1]; pH 7 buffer, 24 hrs): 210 µg/mL
- pH: final pH of supernatant ([1]; pH 7 buffer, 24 hrs): 6.4
- Solid-state Stability [2]: Good physicochemical properties under 40° C./75%
- FC: form change based on XRPD results [2]: No
- Purity vs. Initial (%) [2]: 99.9%
- Purity (area %) [2]: 99.54 area %
- Water uptake ([3]; 25° C., 95% RH): 1.40%
- Hygroscopicity (%), water uptake [3]: (0.86) %

Source: patent US11040038B2, “Methods for treating diseases associated with abnormal ACVR1 expression and ACVR1 inhibitors for use in the same” (Sumitomo Dainippon Pharma Oncology, Inc., priority 2018, dated 2021)
